# How the values were obtained:
# Settings in all cases: 0.1 µM; binder
# ALK(C1156Y) = ALK(C1156Y) (Homo sapiens, UniProt Q9UM73, C1156Y)
# ASK1 = ASK1 (Homo sapiens, UniProt Q99683)
# CHEK2 = CHEK2 (Homo sapiens, UniProt O96017)
# CIT = CIT (Homo sapiens, UniProt O14578)
# CSNK1G1 = CSNK1G1 (Homo sapiens, UniProt Q9HCP0)
# DRAK1 = DRAK1 (Homo sapiens, UniProt Q9UEE5)
# EGFR(L858R) = EGFR(L858R) (Homo sapiens, UniProt P00533, L858R)
# EPHA1 = EPHA1 (Homo sapiens, UniProt P21709)
# ERBB2 = ERBB2 (Homo sapiens, UniProt P04626)
# FLT1 = FLT1 (Homo sapiens, UniProt P17948)
# FLT3(D835Y) = FLT3(D835Y) (Homo sapiens, UniProt P36888, D835Y)
# HIPK1 = HIPK1 (Homo sapiens, UniProt Q86Z02)
# IKK-beta = IKK-beta (Homo sapiens, UniProt O14920)
# IRAK3 = IRAK3 (Homo sapiens, UniProt Q9Y616)
# LATS2 = LATS2 (Homo sapiens, UniProt Q9NRM7)
# MAK = MAK (Homo sapiens, UniProt P20794)
# MAP3K3 = MAP3K3 (Homo sapiens, UniProt Q99759)
# MAPKAPK2 = MAPKAPK2 (Homo sapiens, UniProt P49137)
# MEK1 = MEK1 (Homo sapiens, UniProt Q02750)
# MEK3 = MEK3 (Homo sapiens, UniProt P46734)
# MLK1 = MLK1 (Homo sapiens, UniProt P80192)
# PCTK1 = PCTK1 (Homo sapiens, UniProt Q00536)
# PCTK2 = PCTK2 (Homo sapiens, UniProt Q00537)
# PIKFYVE = PIKFYVE (Homo sapiens, UniProt Q9Y2I7)
# PLK4 = PLK4 (Homo sapiens, UniProt O00444)
# SRPK2 = SRPK2 (Homo sapiens, UniProt P78362)
# STK36 = STK36 (Homo sapiens, UniProt Q9NRP7)
# TGFBR1 = TGFBR1 (Homo sapiens, UniProt P36897)
# ULK1 = ULK1 (Homo sapiens, UniProt O75385)
# VEGFR2 = VEGFR2 (Homo sapiens, UniProt P35968)
# p38-delta = p38-delta (Homo sapiens, UniProt O15264)
# p38-delta, sequence (O15264 whole entry): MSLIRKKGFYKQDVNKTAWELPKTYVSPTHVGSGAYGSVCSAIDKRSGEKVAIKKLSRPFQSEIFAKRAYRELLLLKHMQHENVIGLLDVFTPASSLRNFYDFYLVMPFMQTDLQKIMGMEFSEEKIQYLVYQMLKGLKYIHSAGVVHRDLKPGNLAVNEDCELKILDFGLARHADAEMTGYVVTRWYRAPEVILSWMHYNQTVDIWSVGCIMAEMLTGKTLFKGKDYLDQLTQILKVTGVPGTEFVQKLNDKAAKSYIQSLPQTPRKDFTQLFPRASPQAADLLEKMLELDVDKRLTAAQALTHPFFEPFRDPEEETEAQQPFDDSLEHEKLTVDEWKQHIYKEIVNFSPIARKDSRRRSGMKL
# CSNK1G1, sequence (Q9HCP0 whole entry): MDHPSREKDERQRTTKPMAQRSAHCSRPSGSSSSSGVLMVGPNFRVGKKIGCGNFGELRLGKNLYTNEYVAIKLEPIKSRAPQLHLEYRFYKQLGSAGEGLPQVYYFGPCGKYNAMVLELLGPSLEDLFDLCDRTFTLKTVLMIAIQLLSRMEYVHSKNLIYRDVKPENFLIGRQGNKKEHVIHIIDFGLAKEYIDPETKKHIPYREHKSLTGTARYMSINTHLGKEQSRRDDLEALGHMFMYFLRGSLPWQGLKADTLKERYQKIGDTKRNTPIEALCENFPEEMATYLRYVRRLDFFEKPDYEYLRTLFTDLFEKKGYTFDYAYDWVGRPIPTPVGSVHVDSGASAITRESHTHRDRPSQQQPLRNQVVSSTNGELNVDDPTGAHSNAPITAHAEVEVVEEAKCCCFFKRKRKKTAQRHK
# IKK-beta, sequence (O14920 whole entry): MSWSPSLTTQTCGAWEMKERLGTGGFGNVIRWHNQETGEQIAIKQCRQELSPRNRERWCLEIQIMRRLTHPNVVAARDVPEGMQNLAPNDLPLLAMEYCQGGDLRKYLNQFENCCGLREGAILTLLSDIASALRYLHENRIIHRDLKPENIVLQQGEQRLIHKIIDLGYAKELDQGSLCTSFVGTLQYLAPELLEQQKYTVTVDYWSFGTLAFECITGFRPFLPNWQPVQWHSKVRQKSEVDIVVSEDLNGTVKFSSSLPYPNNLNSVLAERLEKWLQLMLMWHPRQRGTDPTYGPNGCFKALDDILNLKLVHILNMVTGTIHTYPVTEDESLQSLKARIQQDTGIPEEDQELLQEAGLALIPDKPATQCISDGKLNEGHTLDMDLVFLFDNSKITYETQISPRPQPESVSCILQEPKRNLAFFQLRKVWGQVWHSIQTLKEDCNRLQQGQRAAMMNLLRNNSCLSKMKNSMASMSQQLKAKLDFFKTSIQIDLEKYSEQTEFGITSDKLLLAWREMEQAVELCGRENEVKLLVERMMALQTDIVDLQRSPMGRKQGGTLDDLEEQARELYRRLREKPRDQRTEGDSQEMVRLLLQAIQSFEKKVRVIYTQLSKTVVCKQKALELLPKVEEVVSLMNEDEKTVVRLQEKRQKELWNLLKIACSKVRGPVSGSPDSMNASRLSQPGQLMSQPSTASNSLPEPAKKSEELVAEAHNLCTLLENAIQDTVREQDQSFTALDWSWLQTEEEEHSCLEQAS
# HIPK1, sequence (Q86Z02 whole entry): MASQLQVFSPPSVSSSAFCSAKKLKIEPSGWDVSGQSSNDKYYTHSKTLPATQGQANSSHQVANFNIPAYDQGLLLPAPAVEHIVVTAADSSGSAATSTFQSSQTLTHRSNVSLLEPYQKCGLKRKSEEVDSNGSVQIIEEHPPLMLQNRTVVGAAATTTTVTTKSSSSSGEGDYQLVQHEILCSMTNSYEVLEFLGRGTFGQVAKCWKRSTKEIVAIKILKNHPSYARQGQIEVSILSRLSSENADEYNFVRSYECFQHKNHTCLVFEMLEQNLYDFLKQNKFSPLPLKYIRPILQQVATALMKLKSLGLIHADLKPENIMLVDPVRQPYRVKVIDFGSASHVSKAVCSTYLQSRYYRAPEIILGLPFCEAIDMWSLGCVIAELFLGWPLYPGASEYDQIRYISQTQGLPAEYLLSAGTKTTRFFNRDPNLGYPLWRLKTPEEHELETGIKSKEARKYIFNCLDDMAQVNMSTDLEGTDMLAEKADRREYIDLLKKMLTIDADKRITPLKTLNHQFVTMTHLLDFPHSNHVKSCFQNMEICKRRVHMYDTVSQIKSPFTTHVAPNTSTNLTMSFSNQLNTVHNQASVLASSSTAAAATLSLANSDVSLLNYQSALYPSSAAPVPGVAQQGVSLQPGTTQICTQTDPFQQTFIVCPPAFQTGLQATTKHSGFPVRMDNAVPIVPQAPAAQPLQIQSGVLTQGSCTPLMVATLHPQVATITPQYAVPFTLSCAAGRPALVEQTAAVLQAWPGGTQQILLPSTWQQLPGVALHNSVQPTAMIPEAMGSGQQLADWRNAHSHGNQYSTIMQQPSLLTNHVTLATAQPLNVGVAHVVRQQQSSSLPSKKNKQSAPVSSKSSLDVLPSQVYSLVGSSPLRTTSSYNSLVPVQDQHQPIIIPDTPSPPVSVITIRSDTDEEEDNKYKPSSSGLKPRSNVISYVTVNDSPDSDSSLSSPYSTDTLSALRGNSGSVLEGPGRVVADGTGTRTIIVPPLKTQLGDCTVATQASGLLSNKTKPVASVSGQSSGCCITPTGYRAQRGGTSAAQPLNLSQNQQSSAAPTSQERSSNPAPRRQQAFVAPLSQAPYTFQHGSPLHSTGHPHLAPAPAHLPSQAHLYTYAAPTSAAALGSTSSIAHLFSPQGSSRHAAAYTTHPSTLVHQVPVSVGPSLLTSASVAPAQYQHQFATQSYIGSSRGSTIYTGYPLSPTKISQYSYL
# CIT, sequence (O14578 whole entry): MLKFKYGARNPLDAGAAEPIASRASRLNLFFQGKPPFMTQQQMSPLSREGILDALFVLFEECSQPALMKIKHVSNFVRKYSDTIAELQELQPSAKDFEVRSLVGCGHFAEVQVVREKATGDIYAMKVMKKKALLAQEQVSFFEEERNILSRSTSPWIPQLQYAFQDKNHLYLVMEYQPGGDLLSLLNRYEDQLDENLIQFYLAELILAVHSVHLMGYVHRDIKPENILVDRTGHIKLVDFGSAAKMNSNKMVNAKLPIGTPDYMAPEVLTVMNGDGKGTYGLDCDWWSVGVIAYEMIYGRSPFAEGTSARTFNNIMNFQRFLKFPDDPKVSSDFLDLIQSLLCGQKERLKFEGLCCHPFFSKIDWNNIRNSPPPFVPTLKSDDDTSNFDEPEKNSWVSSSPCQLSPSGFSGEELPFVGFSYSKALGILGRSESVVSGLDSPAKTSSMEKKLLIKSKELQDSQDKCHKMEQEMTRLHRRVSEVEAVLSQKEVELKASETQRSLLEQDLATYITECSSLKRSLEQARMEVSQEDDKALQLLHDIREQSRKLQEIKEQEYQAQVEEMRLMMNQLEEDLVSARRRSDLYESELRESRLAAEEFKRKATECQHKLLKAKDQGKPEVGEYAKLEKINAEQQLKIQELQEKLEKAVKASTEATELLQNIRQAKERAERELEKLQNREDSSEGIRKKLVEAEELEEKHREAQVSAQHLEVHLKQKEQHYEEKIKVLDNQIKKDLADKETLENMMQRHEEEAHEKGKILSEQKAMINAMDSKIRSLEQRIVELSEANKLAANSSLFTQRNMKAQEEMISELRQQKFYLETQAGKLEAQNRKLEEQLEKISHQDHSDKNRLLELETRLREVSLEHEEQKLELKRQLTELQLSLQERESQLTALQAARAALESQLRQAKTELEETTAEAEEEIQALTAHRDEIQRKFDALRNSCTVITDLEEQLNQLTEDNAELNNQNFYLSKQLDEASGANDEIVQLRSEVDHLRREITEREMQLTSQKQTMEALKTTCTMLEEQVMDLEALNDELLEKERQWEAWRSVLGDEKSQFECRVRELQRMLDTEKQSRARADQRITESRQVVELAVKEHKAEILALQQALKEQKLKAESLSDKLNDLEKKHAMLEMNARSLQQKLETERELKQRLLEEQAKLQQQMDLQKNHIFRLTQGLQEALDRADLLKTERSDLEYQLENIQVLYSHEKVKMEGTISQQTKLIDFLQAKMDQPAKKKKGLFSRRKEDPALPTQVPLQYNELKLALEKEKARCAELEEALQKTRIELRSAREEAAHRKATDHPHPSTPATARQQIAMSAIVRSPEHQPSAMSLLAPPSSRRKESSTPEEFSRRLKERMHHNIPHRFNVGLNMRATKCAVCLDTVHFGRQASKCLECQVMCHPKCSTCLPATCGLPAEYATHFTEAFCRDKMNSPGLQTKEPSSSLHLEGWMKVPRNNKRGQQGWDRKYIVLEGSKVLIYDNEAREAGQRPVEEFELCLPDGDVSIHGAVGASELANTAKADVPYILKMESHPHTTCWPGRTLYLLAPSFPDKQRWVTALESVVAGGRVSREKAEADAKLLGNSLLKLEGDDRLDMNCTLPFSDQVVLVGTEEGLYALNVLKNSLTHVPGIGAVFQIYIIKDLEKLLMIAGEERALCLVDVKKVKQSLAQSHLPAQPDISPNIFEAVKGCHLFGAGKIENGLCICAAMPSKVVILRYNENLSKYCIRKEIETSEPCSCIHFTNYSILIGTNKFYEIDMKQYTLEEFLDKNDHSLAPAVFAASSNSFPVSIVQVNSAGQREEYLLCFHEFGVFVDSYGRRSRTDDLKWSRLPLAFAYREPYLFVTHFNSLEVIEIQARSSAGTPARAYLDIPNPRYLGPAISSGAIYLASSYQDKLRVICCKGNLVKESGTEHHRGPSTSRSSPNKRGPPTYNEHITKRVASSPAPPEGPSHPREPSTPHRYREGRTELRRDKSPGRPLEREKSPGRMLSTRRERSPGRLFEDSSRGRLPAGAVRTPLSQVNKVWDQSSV
smiles,measurement,setting,value
"CNc1ncc2cc(-c3ccc(-c4cccc(C)n4)cc3Cl)c(=O)n(C[C@H]3OC[C@H](N)CO3)c2n1 [compound 6, G-5555]",Percent Control,ALK(C1156Y),100%
same,Percent Control,ASK1,99%
same,Percent Control,CHEK2,100%
same,Percent Control,CIT,100%
same,Percent Control,CSNK1G1,100%
same,Percent Control,DRAK1,79%
same,Percent Control,EGFR(L858R),100%
same,Percent Control,EPHA1,64%
same,Percent Control,ERBB2,100%
same,Percent Control,FLT1,94%
same,Percent Control,FLT3(D835Y),94%
same,Percent Control,HIPK1,100%
same,Percent Control,IKK-beta,93%
same,Percent Control,IRAK3,95%
same,Percent Control,LATS2,58%
same,Percent Control,MAK,90%
same,Percent Control,MAP3K3,86%
same,Percent Control,MAPKAPK2,100%
same,Percent Control,MEK1,24%
same,Percent Control,MEK3,75%
same,Percent Control,MLK1,100%
same,Percent Control,PCTK1,100%
same,Percent Control,PCTK2,100%
same,Percent Control,PIKFYVE,100%
same,Percent Control,PLK4,84%
same,Percent Control,SRPK2,98%
same,Percent Control,STK36,36%
same,Percent Control,TGFBR1,99%
same,Percent Control,ULK1,100%
same,Percent Control,VEGFR2,98%
same,Percent Control,p38-delta,86%

# Reference: publication doi:10.1101/2021.04.08.439011v1 (biorxiv, 2021)
